Assay results published in patent US9700637B2, “Reaction-based fluorescent probes for detecting zinc” (Massachusetts Institute of Technology, priority 2013, dated 2017).

Test system: HeLa cells
Experiment: Live cell fluorescence imaging: localization, co-localization and uptake
Format: cell-based
Details: fluorescence microscopy, live HeLa cells (Table 1)
Description: FIG. 6 depicts live cell imaging of HeLa cells. 500 nM mitotracker Red was bath-applied along with 1 μM DA-ZP1-TPP for 30 min at 37° C. and 5% CO2. After exposure to 25 μM 1:2 zinc:pyrithione, fluorescent images were acquired and the co-localization of the two sensors was assessed. The calculated Pearson's correlation coefficient (r) was r=0.581±0.097 (n=9), which represents the average of 9 ROIs over three independent plates.
FIG. 14 depicts live cell imaging of HeLa cells. 1 μM Lysotracker Red was bath-applied along with 2 μM ZP1-TPP. The calculated Pearson's correlation coefficient (r) was r=0.45±0.15, which represents the average of 9 ROIs over three independent plates.
FIG. 24 depicts fluorescence images of live HeLa cells. HeLa cells were pretreated with a 1 μM solution of DA-ZP1-TPP in dye- and serum-free medium for 30 min (37° C., 5% CO2). […] The signal from MitoTracker Red (c) correlates well with the signal from the zinc-bound sensor (d). Pearson's r=0.64±0.1 (n=18).
FIG. 27 depicts deconvoluted fluorescence microscopy images of live HeLa cells pretreated with ZP1-R9 (5 μM) or DA-ZP1-R9 (2.5 μM) and the indicated organelle stain. Top, ZP1-R9: (a) Differential interference contrast (DIC) image, (b) signal from ZP1-R9, (c) signal from LysoTracker Red, (d) overlay of (b) and (c). Pearson's r=0.42±0.16 (n=8). Bottom, DA-ZP1-R9: (e) DIC, (f) signal from DA-ZP1-R9 after treatment with 25 μM ZnPT, (g) signal from Hoechst 33258, (h) overlay of (f) and (g). Scale bar=25 μm.
FIG. 29 depicts deconvoluted fluorescence microscopy images of live HeLa cells pretreated with 1 μM DA-ZP1-R9 and 100 nM Dextran Red. (a) Differential interference contrast (DIC), (b) signal from DA-ZP1-R9 after addition of 25 μM ZnPT (c) signal from Dextran Red, (d) overlay of (b) and (c). Pearson's r=0.55±0.12 (n=11). Scale bar=25 μm.
FIG. 31 depicts deconvoluted fluorescence microscopy images of ZP1-(Fxr)3 and DA-ZP1-r(Fxr)3 in live HeLa cells. Top, cells pretreated with medium containing 2.5 μM of ZP1-(Fxr)3: (a) Differential interference contrast (DIC) image, (b) signal from ZP1-(Fxr)3, (c) signal from Dextran Red, (d) overlay of (b) and (c). Pearson's r=0.71±0.07. Bottom, cells pretreated with 1 μM DA-ZP1-r(Fxr)3: (e) DIC, (f) signal from DA-ZP1-r(Fx)3 after treatment with 25 μM ZnPT, (g) signal from MitoTracker Red, (h) overlay of (f) and (g). Pearson's r=0.41±0.09. Scale bar=25 μm.
FIG. 33 depicts deconvoluted fluorescence microscopy images of DCF-r(Fxr)3 and DA-DCF-r(Fxr)3 in live HeLa cells. Top, cells pretreated with 5 μM DCF-r(Fxr)3 and 500 nM MitoTracker Red for 30 min. (a) differential contrast image (DIC), (b) signal from DCF-r(Fxr)3, (c) signal from MitoTracker Red. Bottom, cells pretreated with 5 μM DA-DCF-r(Fxr)3 and 500 nM MitoTracker Red for 30 min. (d) DIC, (e) signal from DCF-r(Fxr)3, (f) signal from MitoTracker Red. The global Pearson's r=0.57±0.16 (n=37). Cells with high levels of DA-DCF-r(Fxr)3 (e, red outline) have a higher Pearson's r=0.83±0.08 (n=10). Scale bar=25 μm.
We used HeLa cells as a model system to evaluate the ability of DA-ZP1-TPP to target mitochondria and respond to changes in intracellular zinc levels. […] Over a two-hour period, the fluorescence intensity from the sensor remained constant, implying that the acetylated form is stable against intracellular esterases (FIG. 24e). […] Addition of 100 μM TPEN attenuated the fluorescence signal by ˜2.4-fold (FIG. 24f). […]

| SMILES | Localization |
| --- | --- |
| O=C(NCC[P+](c1ccccc1)(c1ccccc1)c1ccccc1)c1ccc2c(c1)C1(OC2=O)c2cc(Cl)c(O)c(CN(Cc3ccccn3)Cc3ccccn3)c2Oc2c1cc(Cl)c(O)c2CN(Cc1ccccn1)Cc1ccccn1 [ZP1-TPP] | Endo/lysosome |
| CC(=O)Oc1c(Cl)cc2c(c1CN(Cc1ccccn1)Cc1ccccn1)Oc1c(cc(Cl)c(OC(C)=O)c1CN(Cc1ccccn1)Cc1ccccn1)C21OC(=O)c2ccc(C(=O)NCC[P+](c3ccccc3)(c3ccccc3)c3ccccc3)cc21 [DA-ZP1-TPP] | Mitochondria |
